Laboratory results as given in US20110230472A1, “RING-FUSED AZOLE DERIVATIVE HAVING PI3K-INHIBITING ACTIVITY” (Shionogi & Co., Ltd., priority 2008, published 2011).

What was measured:
CYP3A4 = molecular target: T1, CYP3A4 (Homo sapiens, UniProt P08684); test: CYP inhibition test, pooled human liver microsome, CYP3A4; type: in vitro ADME; conditions: hydroxylation of terfenadine
T1 construct: enzyme: pooled human liver microsome 0.2 mg protein/mL; from tissue; host or cells: pooled human liver microsome
Excerpt: (§1) O-de-ethylation of 7-ethoxyresorufin (CYP1A2), methyl-hydroxylation of tolbutamide (CYP2C9), 4′-hydroxylation of mephenyloin (CYP2C19), O-demethylation of dextromethorphan (CYP2D6), and hydroxylation of terfenadine (CYP3A4), which are typical substrate for metabolic reactions of human main CYP5 molecular species (CYP1A2, 2C9, 2C19, 2D6, and 3A4), were adopted as indexes.
(§2) The reaction conditions are as follows: substrate: 0.5 μmol/L of ethoxyresorufin (CYP1A2), 100 μmol/L of tolbutamide (CYP2C9), […] of S-mephenyloin (CYP2C19), 5 μmol/L of dextromethorphan (CYP2D6), and 1 μmol/L of terfenadine (CYP3A4); reaction time; 15 minutes; reaction temperature: 37° C.; enzyme: pooled human liver microsome 0.2 mg protein/mL; test drug concentration: 1, 5, 10, and 20 μmol/L (4 points).
(§3) In a 96-well plate, as a reaction solution, five kinds of substrates, a human liver microsome, and a test drug were added to 50 mmol/L Hepes buffer solution in the aforementioned ratio. A coenzyme NADPH was added to start a metabolic reaction, which is an index. After reacting at 37° C. for 15 minutes, a solution of methanol/acetonitrile (1/1 (v/v)) was added to quench the reaction. After centrifugation at 3000 rpm for 15 minutes, resorufin (CYP1A2 metabolite) in the supernatant was quantitated with a fluorescence multilabel counter, and hydroxylated tolbutamide (CYP2C9 metabolite), 4′-hydroxylated mephenyloin (CYP2C19 metabolite), […], terfenadine in alcohol form (CYP3A4 metabolite) were quantitated with LC/MS/MS.
(§4) The case wherein only DMSO (a solvent which dissolved a drug) was added to a reaction system was defined as a control (100%). When a test drug solution was added, the remaining activity (%) at each concentration was calculated, and then IC50 was calculated with a concentration and an inhibition ratio by an inverse estimation using a logistic model.

[1] = molecular target: T2, human ether-a-go-go related gene (hERG) channel (Homo sapiens, UniProt Q12809); test: hERG test, whole-cell patch-clamp; type: cell-based; conditions: HEK293 cell expressing hERG; applied for 10 minutes; concentration not given
T2 construct: expressed in transfected cells; host or cells: HEK293
Excerpt: For the purpose of risk evaluation of QT interval extension of electrocardiogram, the activity on delayed rectification K^+ current (IKr), which plays an important role in a cardiac ventricle repolarization process, was examined using the HEK293 cell that was made to express human ether-a-go-go related gene (hERG) channel.
Using an automatic patch-clamp system (PatchXpress 7000A, Axon Instruments Inc.), by a whole-cell patch-clamp method, after the cell was maintained at a membrane potential of −80 mV, IKr induced upon applying depolarizing stimulation of +50 mV for 2 seconds and further applying repolarizing stimulation of −50 mV for 2 seconds was recorded. After generated electric current became stable, a test substance dissolved at an intended concentration in extracellular fluid (137 mmol/L NaCl, 4 mmol/L KCl, 1.8 mmol/L CaCl2.2H2O, 1 mmol/L MgCl2.6H2O, 10 mmol/L glucose, 10 mmol/L HEPES (4-(2-hydroxyethyl)-1-piperazineethanesulfonic acid), pH=7.4) was applied to the cell for 10 minutes under room temperature condition. From the obtained IKr, the absolute value of the maximum tail current was measured using analysis software (DataXpress ver. 1, Molecular Devices Corporation) and the value of the electric current in a maintained membrane potential as baseline. Moreover, an inhibition ratio for the maximum tail current prior to the application of the test substance was calculated and then compared with a group of media-application (0.1% dimethylsulfoxide solution) to evaluate influence of the test substance on IKr.

CYP2D6 = molecular target: T3, CYP2D6 (Homo sapiens, UniProt P10635); test: CYP inhibition test, pooled human liver microsome, CYP2D6; type: in vitro ADME; conditions: O-demethylation of dextromethorphan
T3 construct: enzyme: pooled human liver microsome 0.2 mg protein/mL; from tissue; host or cells: pooled human liver microsome
Excerpt: as §1, §2, §3, §4

CYP2C19 = molecular target: T4, CYP2C19 (Homo sapiens, UniProt P33261); test: CYP inhibition test, pooled human liver microsome, CYP2C19; type: in vitro ADME; conditions: 4′-hydroxylation of mephenyloin
T4 construct: enzyme: pooled human liver microsome 0.2 mg protein/mL; from tissue; host or cells: pooled human liver microsome
Excerpt: as §1, §2, §3, §4

PI-3 kinase γ = PI-3 kinase γ (Homo sapiens, UniProt P48736); test: PI3Kγ inhibitory activity, PI3-kinase HTRF assay (inhibition ratio); type: biochemical; conditions: 0.5 h; for inhibition at 50 µM: compound at 50 μM
How it was run: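 Single-concentration inhibition ratio (50 or 10 μmol/L compound) versus no-compound (100%) and no-enzyme (0%) wells. Reaction: PI-3 kinase γ, PIP2, ATP, MgCl2/DTT, 30 min at RT after 10 min preincubation. Read-out: HTRF 665/620 nm after 18 h detection.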

Solubility test = type: physicochemical; conditions: kinetic from dmso stock; artificial intestinal juice pH 6.8, 1% DMSO, 25° C. for 16 hours
How it was run: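 Kinetic solubility with 1% DMSO: compound from 10 mmol/L DMSO stock spiked into pH 6.8 phosphate artificial intestinal juice, held 16 h at 25 °C, then suction-filtered. Filtrate diluted twofold in methanol/water (1/1) and quantified by HPLC or LC/MS/MS via absolute calibration.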

T2 sequence (Q12809 whole entry): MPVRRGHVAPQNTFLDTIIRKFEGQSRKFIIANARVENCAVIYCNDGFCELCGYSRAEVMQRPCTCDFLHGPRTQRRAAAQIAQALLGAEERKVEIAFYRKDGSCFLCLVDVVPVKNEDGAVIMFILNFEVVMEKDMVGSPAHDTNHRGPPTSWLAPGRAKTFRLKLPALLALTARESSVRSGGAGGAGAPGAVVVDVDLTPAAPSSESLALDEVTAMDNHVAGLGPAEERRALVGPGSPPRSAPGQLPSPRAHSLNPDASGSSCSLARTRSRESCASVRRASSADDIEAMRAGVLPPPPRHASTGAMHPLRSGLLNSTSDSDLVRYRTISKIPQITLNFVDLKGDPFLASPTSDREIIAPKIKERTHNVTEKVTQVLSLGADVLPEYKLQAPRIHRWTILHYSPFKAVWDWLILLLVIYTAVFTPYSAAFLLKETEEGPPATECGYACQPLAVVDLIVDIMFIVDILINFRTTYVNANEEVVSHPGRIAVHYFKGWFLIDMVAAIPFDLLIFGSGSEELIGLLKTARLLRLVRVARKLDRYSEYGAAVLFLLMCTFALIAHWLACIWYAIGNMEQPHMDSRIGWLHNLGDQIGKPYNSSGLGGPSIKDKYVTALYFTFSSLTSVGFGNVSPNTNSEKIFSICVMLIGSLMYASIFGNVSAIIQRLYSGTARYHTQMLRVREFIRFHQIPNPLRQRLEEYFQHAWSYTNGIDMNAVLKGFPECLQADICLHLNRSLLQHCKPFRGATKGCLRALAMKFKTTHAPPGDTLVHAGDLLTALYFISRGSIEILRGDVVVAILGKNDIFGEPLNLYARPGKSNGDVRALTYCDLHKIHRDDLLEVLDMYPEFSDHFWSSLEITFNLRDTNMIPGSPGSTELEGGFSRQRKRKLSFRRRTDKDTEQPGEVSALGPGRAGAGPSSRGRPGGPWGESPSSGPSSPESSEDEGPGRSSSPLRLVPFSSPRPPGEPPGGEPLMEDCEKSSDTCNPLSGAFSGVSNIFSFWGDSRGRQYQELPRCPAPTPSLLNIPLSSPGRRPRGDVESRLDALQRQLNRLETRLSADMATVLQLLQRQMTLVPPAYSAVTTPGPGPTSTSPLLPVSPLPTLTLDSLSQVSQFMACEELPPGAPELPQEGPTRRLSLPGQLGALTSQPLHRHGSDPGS
T1 sequence (P08684 whole entry): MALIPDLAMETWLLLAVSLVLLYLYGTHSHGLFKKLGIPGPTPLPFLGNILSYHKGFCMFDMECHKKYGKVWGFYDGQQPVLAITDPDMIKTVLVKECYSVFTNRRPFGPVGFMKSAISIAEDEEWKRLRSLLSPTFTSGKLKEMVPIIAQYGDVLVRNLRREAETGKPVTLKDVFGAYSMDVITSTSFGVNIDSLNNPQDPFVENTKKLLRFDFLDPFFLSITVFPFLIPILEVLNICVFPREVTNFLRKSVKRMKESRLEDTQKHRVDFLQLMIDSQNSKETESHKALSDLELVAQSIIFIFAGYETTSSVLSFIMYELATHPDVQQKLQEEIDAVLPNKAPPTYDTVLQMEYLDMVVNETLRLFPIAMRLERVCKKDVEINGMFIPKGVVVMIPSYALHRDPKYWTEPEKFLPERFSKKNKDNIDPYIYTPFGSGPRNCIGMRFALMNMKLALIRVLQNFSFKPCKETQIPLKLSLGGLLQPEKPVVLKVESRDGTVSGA
T4 sequence (P33261 whole entry): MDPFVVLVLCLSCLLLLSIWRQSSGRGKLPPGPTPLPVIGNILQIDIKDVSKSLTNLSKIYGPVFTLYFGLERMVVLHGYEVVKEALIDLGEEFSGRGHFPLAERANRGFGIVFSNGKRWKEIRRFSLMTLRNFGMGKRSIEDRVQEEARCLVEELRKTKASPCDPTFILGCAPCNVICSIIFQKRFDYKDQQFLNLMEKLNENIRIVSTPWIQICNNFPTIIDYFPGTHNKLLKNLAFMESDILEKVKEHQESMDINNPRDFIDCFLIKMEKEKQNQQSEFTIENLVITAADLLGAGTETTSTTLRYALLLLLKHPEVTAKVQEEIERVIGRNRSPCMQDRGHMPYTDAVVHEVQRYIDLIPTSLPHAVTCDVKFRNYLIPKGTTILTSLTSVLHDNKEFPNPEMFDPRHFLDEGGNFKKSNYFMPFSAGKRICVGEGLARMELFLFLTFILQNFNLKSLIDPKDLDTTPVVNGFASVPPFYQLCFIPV
T3 sequence (P10635 whole entry): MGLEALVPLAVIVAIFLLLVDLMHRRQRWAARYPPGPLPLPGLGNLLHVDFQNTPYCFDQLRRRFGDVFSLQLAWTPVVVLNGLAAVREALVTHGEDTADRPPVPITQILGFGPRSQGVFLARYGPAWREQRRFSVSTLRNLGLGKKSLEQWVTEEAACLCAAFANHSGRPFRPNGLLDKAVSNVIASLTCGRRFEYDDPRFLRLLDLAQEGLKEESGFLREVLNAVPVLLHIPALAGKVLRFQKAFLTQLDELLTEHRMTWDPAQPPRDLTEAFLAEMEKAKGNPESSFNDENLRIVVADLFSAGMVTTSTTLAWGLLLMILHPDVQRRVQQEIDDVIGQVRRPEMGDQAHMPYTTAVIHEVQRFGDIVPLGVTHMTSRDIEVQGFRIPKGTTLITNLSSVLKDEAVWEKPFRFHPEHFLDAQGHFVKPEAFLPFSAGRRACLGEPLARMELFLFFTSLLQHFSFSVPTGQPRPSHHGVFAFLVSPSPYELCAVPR
Sequence of PI-3 kinase γ (P48736 whole entry): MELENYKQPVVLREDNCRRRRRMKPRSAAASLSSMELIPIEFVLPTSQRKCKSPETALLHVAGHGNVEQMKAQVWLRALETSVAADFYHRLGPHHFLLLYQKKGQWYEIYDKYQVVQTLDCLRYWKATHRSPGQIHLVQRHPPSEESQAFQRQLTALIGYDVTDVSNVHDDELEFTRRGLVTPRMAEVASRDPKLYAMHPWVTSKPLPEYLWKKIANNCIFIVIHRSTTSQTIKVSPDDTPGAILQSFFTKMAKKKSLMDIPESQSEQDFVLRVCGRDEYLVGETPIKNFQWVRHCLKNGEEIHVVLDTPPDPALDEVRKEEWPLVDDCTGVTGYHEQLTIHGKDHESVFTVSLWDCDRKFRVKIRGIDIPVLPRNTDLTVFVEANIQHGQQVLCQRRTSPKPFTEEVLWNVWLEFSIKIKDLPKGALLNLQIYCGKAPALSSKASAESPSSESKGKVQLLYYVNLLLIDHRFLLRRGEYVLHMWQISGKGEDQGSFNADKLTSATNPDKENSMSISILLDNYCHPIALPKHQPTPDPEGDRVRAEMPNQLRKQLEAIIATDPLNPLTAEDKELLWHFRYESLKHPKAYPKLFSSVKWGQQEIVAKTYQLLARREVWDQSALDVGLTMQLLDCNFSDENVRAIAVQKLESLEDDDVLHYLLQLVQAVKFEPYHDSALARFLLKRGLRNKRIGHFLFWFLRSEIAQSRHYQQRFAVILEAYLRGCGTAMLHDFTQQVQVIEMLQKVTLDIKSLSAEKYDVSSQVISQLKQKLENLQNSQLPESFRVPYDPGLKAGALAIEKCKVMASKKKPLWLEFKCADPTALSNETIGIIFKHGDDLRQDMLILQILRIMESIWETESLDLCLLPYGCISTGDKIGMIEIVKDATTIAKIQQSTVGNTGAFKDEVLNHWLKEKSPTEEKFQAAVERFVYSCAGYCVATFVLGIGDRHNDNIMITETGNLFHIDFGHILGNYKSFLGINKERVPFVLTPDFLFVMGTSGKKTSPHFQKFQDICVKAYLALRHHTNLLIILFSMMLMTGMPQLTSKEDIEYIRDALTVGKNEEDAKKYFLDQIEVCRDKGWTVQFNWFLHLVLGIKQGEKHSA

SMILES	IC50 (CYP3A4)	inhibition ratio for the maximum tail current (IKr) [1]	IC50 (CYP2D6)	IC50 (CYP2C19)	inhibition at 50 µM (PI-3 kinase γ; PI3Kγ)	solubility at 16 h (Solubility test)	inhibition at 10 µM (PI-3 kinase γ; PI3Kγ, compound at 10 μM)	inhibition at 10 µM (PI-3 kinase γ; compound at 10 μmol/L)
CNC(=O)Nc1cc2n(n1)CCN2c1ccc(S(C)(=O)=O)cc1 [Compound I-89]	> 20 µM	< 0.5%	> 20 µM	> 20 µM	≥ 95%			
CNC(=O)Nc1nc2c(s1)CN(c1cc(Cl)nc(N)n1)CC2 [Compound I-118]	> 20 µM	8.4%	> 20 µM	> 20 µM	≥ 95%	> 50 µM		
CNC(=O)Nc1nc2c(s1)CN(c1ccnc(OC)n1)CC2 [Compound I-142]	> 20 µM		> 20 µM	> 20 µM	≥ 95%	> 50 µM		
CNC(=O)Nc1cc2n(n1)CCN2c1cc(C(=O)N2CCOCC2)cc(-c2ccc(N)nc2)c1 [Compound I-200]	> 20 µM	7.3%	> 20 µM	> 20 µM	≥ 95%	> 50 µM		
COc1cc(N2CCc3nc(NC(=O)NCC(=O)O)sc3C2)nc(OC)n1 [Compound I-208]	> 20 µM	2.7%	> 20 µM	> 20 µM	93%	> 50 µM		
COc1cc(N2CCc3nc(NC(=O)NCc4cc(=O)[nH]o4)sc3C2)nc(OC)n1 [Compound I-279]	> 20 µM	5%	> 20 µM	> 20 µM			≥ 95%	
CN1CCc2cc(N3CCn4nc(NC(=O)c5cccnc5)cc43)ccc2C1=O [Compound I-347]	> 20 µM	6%	> 20 µM	> 20 µM		> 50 µM		91%
CN1CCc2cc(N3CCn4nc(NC(=O)c5ccco5)cc43)ccc2C1=O [Compound I-358]	> 20 µM		> 20 µM	> 20 µM		> 50 µM		≥ 95%
